“Also recorded” adds a separate entry of the source.

Series [1] can be described thus: Mouse pharmacokinetics after oral dosing. It is filed as in vivo, mice. Conditions: for adverse reactions in plasma exposure study: single and repeat dosing; for plasma levels reached after single oral dose: uninfected mice.
Another series concerns P. berghei. As to the kind of experiment: P. berghei mouse in vivo efficacy testing. To be noted: for ill effects from compound administration: oral 100 mg/kg/dose every 4 h × 10, then every 6 h × 6; for impact on parasite blood levels in P. berghei mouse model: oral 100 mg/kg/dose every 4 hours × 10 doses, then every 6 hours × 6 doses. On the set-up: species or system Plasmodium berghei in mice.

The next series relates to Pf 3D7 cells. To be noted: read-out: EC50 against P. falciparum in whole cell assays; cited from earlier work.
A further series in a line: in vitro. To be noted: human, microsomes.
Another series deals with PbDHODH (Plasmodium berghei, UniProt A0A509AEH5). Nature of the series: PbDHODH steady-state inhibition assay. To be noted: PbDHODH vs PfDHODH. It is filed as biochemical.
Series [2] is described as follows: In vitro human microsomal metabolism. Conditions: for Predicted EH (hepatic extraction ratio): estimated from measured rate of degradation in vitro; for Predicted EH (hepatic extraction ratio) / microsomal CLint at 1 µM: human; for microsomal CLint at 1 µM: pooled human liver microsomes; for Putative metabolites: human liver microsomes, LC/MS.
For the next series, the target named is PfDHODH (Plasmodium falciparum, UniProt Q08210). To be noted: unsubstituted phenyl; cited from earlier work.
PfDHODH, sequence (Q08210 158-569): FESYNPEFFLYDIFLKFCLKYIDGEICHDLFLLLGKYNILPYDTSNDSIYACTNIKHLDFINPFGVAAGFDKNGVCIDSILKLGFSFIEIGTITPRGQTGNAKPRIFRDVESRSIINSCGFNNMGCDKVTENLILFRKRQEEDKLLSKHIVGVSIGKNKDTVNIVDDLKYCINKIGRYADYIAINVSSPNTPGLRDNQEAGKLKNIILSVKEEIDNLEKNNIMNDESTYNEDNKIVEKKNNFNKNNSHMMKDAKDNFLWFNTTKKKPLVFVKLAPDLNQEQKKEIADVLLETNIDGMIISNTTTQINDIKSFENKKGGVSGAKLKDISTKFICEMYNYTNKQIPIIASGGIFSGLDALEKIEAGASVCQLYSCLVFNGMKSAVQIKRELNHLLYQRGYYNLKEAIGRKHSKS

The EC50 is the concentration that produces a half-maximal response. For orientation: microsomal CLint means the rate of metabolic loss divided by the concentration. A high value points to rapid turnover. As for `Cc1cc(Nc2ccc3ccccc3c2)n2ncnc2n1` [Compound 2, (5-methyl-[1,2,4]triazolo[1,5-a]pyrimidin-7-yl)-naphthalen-2-yl-amine], the “plasma levels at 240 min on day 4 of repeat dosing” value in series [1] (mice, 50 mg/kg oral 1x daily repeat dosing) is listed as “nearly undetectable”. In addition, the “adverse reactions in plasma exposure study” value in series [1] (mice, 50 mg/kg oral) is given as “No adverse reactions”. For the same compound, the “plasma levels reached after single oral dose” value in series [1] (50 mg/kg oral single dose) fell in the range of 2000 to 3000 nM. In the series on P. berghei (infected mice), the “ill effects from compound administration” value is reported as “no major ill effects”. Besides, in the series with P. berghei (100 mg/kg), the “impact on parasite blood levels in P. berghei mouse model” value was “no activity; also recorded: neither compound had any impact”. The EC50 with Pf 3D7 cells is 0.08 µM. In the series “in vitro”, this compound displayed a microsomal CLint of 96 µL/min/mg.
As for `Cc1cc(Nc2ccc3cc4ccccc4cc3c2)n2ncnc2n1` [Compound 3, (5-Methyl-[1,2,4]triazolo[1,5-a]pyrimidin-7-yl)-anthracen-2-yl-amine], on PbDHODH, the “IC50 fold higher for PbDHODH than for PfDHODH” value is 66 fold. In series [1] (mice, 50 mg/kg oral for 2 to 4 days), the “plasma concentrations after last dose of repeat dosing relative to single dose” value is reported as “significantly reduced”. For the same compound, the “plasma concentrations maintained over 240 min” value in series [1] (mice, 50 mg/kg oral single dose) was 1000 to 3000 nM. Besides, the observed plasma levels in series [1] (mice, 50 mg/kg oral, repeat dosing) is ~ 1 µM. Moreover, in series [1] (mice, 50 mg/kg oral), the “adverse reactions in plasma exposure study” value is given as “No adverse reactions”. The “plasma levels reached after single oral dose” value in series [1] (50 mg/kg oral single dose) is 2000 to 3000 nM. Also, in the series on P. berghei (infected mice), the “ill effects from compound administration” value was “no major ill effects”. For the same compound, in the series with P. berghei, the “impact on parasite blood levels in P. berghei mouse model” value was “neither compound had any impact”. Moreover, in series [2], the “Predicted EH (hepatic extraction ratio)” value was 0.70 and the microsomal CLint at 1 µM was found to be 37 µL/min/mg.
In the case of `Cc1cc(Nc2ccccc2)n2ncnc2n1` [Compound 4], the “activity (in words)” value on PfDHODH is “completely inactive”.
`Cc1cc(Nc2cccc(F)c2)n2ncnc2n1` [Compound 13, (3-Fluoro-phenyl)-(5-methyl-[1,2,4]triazolo[1,5-a]pyrimidin-7-yl)-amine]: in series [2], the “Predicted EH (hepatic extraction ratio)” value is reported as 0.50 and the microsomal CLint at 1 µM amounted to 18 µL/min/mg.
`Cc1cc(Nc2cccc(Cl)c2)n2ncnc2n1` [Compound 14, (3-Chloro-phenyl)-(5-methyl-[1,2,4]triazolo[1,5-a]pyrimidin-7-yl)-amine] showed a microsomal CLint in “in vitro” of 38 µL/min/mg.
As for `Cc1cc(Nc2cccc(C(F)(F)F)c2)n2ncnc2n1` [Compound 16, (5-Methyl-[1,2,4]triazolo[1,5-a]pyrimidin-7-yl)-(3-trifluoromethyl-phenyl)-amine], in series [2], the “Predicted EH (hepatic extraction ratio)” value was 0.62 and the microsomal CLint at 1 µM is 29 µL/min/mg.
With `Cc1cc(Nc2ccc(C(F)(F)F)cc2)n2ncnc2n1` [Compound 21, (5-Methyl-[1,2,4]triazolo[1,5-a]pyrimidin-7-yl)-(4-trifluoromethyl-phenyl)-amine], the “time plasma concentrations maintained above 1 µM (0.29 µg/mL)” value in series [1] (mice, single oral dose 50 mg/kg) was 16 h. For the same compound, the “adverse reactions after oral administration” value in series [1] (mice, single oral dose 20 or 50 mg/kg) is “No adverse reactions”. Moreover, in the series with P. berghei (infected mice, 50 mg/kg oral q.d. or b.i.d. for 4 days), the “adverse reactions in efficacy study” value is reported as “No adverse reactions”. The compound further showed a microsomal CLint in the series “in vitro” of 7.5 µL/min/mg.
Regarding `Cc1cc(Nc2ccc(F)c(C)c2)n2ncnc2n1` [Compound 40, (4-Fluoro-3-methyl-phenyl)-(5-methyl-[1,2,4]triazolo[1,5-a]pyrimidin-7-yl)-amine], in series [2], the “Predicted EH (hepatic extraction ratio)” value is reported as 0.64 and the microsomal CLint at 1 µM came out at 31 µL/min/mg.
With `Cc1cc(Nc2ccc(Cl)c(C(F)(F)F)c2)n2ncnc2n1` [Compound 41, (4-Chloro-3-trifluoromethyl-phenyl)-(5-methyl-[1,2,4]triazolo[1,5-a]pyrimidin-7-yl)-amine], in series [2], the “Predicted EH (hepatic extraction ratio)” value was 0.42 and the microsomal CLint at 1 µM turned out to be 13 µL/min/mg.
Turning to `Cc1cc(Nc2ccc(Br)c(C(F)(F)F)c2)n2ncnc2n1` [Compound 42, (4-Bromo-3-trifluoromethyl-phenyl)-(5-methyl-[1,2,4]triazolo[1,5-a]pyrimidin-7-yl)-amine], in series [2], the “Predicted EH (hepatic extraction ratio)” value is 0.43 and the microsomal CLint at 1 µM was found to be 14 µL/min/mg.
`Cc1cc(Nc2ccc(C#N)c(C(F)(F)F)c2)n2ncnc2n1` [Compound 45, 4-(5-Methyl-[1,2,4]triazolo[1,5-a]pyrimidin-7-ylamino)-2-trifluoromethyl-benzonitrile]: in series [2], the Putative metabolites entry was “no metabolites were detected; also recorded: None detected”.
Take `Cc1cc(Nc2ccc(C(F)(F)F)c(F)c2)n2ncnc2n1` [Compound 47, (3-Fluoro-4-trifluoromethyl-phenyl)-(5-methyl-[1,2,4]triazolo[1,5-a]pyrimidin-7-yl)-amine]: in series [2], the Putative metabolites result is “no metabolites were detected; also recorded: None detected”.
